Source: US20120064528A1, “METHODS AND REAGENTS FOR QUANTIFYING NUCLEIC ACID FRAGMENTATION AND APOPTOSIS (QLM-PCR, CELL NUMBER QPCR AND APOQPCR)” (THE MACFARLANE BURNET INSTITUTE FOR MEDICAL RESEARCH AND …, priority 2010, published 2012)
Entries after “also recorded” stand apart in the source; their conditions may differ.

Experiments:
Jurkat cells [1] = experiment: Genomic DNA fragmentation by agarose gel electrophoresis and trace intensity; assay type: cell-based, human; settings: 5 hours
Procedure: Jurkat cells were grown to log phase in RF-10 tissue culture medium, pelleted and resuspended to 10^6 cells/ ml in new RF-10 at 37° C., and incubated at 37° C. with or without staurosporine (at 4 or 8 μM) for 5 and 6 hours. At the end-points, genomic DNA was purified using Qiagen DNA mini-prep columns following the manufacturer's recommendations, including RNase treatment and stored at −80° C. These columns quantitatively purify nucleic acid in the target size range of 200 by to 50 kbp. Nucleic acid for each end-point was compared by agarose gel electrophoresis. The generation of 100% apoptotic nucleic acid was defined as the complete absence of any typically high molecular weight genomic nucleic acid and complete conversion of this length of nucleic acid into apoptotic fragments, as determined by trace intensity using a GelDoc Imager (BioRad). […] The same experiment from cell culture to nucleic acid purification was repeated to test reproducibility. Nucleic acid from both experiments was electrophoresed together and trace intensities compared (FIG. 2C).

Jurkat cells [2] = experiment: Apoptosis measured by TUNEL with flow cytometry; assay type: cell-based, human
Procedure: To verify the definition of 100% apoptotic DNA, apoptosis was measured by TUNEL with flow cytometry from fractions of the same cultured cells used for genomic nucleic acid purification (above). At each time point and each staurosporine concentration, cells (6 ml) were collected, washed twice with PBS and resuspended in PBS to 2×10^7 cells/ml for duplicate 100 μl cells per micro-well. TUNEL procedure for cell suspensions followed the In Situ Cell Death Detection Kit, Flourescein (Roche, Mannheim, Germany) with the following modifications: after pelleting cells in wells, supernatant was aspirated and cells gently resuspended in 100 μl/well of fixation/permeabilisation solution (Cytofix/Cytoperm kit, BD Biosciences/Pharmingen, CA, USA). After incubation for 20 minutes at 4° C., cells were washed at this and subsequent wash stages 2 times at room temperature with perm/wash buffer (Cytofix/Cytoperm kit). After final washes, cells were resuspended in 250 μl/well 1% paraformaldehyde in PBS, stored at 4° C. in the dark for up to 12 hours and analyzed by flow cytometry at excitation 488 nm, detection 530 nm using a BD FACScan (BD Biosciences). At each measurement at least 10,000 events were sorted. Mean TUNEL positivity for cells incubated for 5 hours without staurosporine was 3%, while positivity for cells incubated for 5 hours with 8 μM staurosporine was 98.5% (FIG. 3).

For `CN[C@@H]1C[C@H]2O[C@@](C)([C@@H]1OC)n1c3ccccc3c3c4c(c5c6ccccc6n2c5c31)C(=O)NC4` [staurosporine], the “unfragmented high molecular weight genomic nucleic acid remaining, by trace quantification” value (Jurkat cells [1]; 4 μM staurosporine, 37° C.) was 1.8%, the “DNA fragmentation as determined by trace analysis” value (Jurkat cells [1]; 8 μM staurosporine, 37° C. (optimal conditions)) was “all DNA was fragmented; also recorded: unfragmented nucleic acid was not detected” and the “Mean TUNEL positivity” value (Jurkat cells [2]; 8 μM staurosporine, 5 hours) was 98.5%. For the same molecule, the “apoptotic cells by TUNEL with flow cytometry (FACS)” value (Jurkat cells [2]; optimal test conditions) was 99%.
